This note sets out measurements from ChEMBL document CHEMBL1201862, “PubChem BioAssay data set” (2004).

In general, GI50 refers to the concentration that inhibits growth by half.

Common to all, as to experiment: DTP human tumour cell line panel, 48 h
In experiment [1] the test system is ACHN.
Experiment [2] has as its system HCT-15.
The subject of experiment [3] is Hs-578T.
Experiment [4] relates to K562.
Experiment [5] relates to KM12.
The subject of experiment [6] is MDA-MB-231.
For experiment [7], the system named is Malme-3M.
Experiment [8] deals with NCI-H460.
In experiment [9] the test system is OVCAR-4.
Experiment [10] concerns OVCAR-8.
Experiment [11] relates to SK-MEL-28.
In experiment [12] the test system is SK-MEL-5.
Experiment [13] concerns SW-620.
Experiment [14] concerns U-251.
Experiment [15] deals with UACC-62.
Experiment [16] deals with A549.
The test system of experiment [17] is MCF7.
The test system of experiment [18] is OVCAR-5.
Experiment [19] has as its system RXF 393.

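Values below derive from 48-hour exposures of cells grown in 96-well plates, with endpoints linearly interpolated between the two concentrations bracketing the appropriate inhibition level. Here, GI50 denotes the concentration required for 50% inhibition of growth.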 Active and inactive are the calls of the source. Cut-off read from the data, not from the text of the source: active = GI50 up to about 1.1 µM and inactive = higher. Bounds are passed on as bounds.

As to `O=c1c(C(c2ccc(/C=C/c3ccccc3)cc2)c2c(O)oc3ccccc3c2=O)c(O)oc2ccccc12`, the GI50 in experiment [1] was 18.8 µM (inactive); in experiment [2] it was 44 µM; in experiment [3], 26.8 µM (inactive); in experiment [4] it was > 100 µM (inactive); in experiment [5], 23 µM (inactive); in [6] it was 28.7 µM (inactive). The GI50 in [7] was 21.6 µM (inactive); in experiment [8] it was 24.5 µM (inactive); in experiment [9] it was 35.6 µM (inactive); in experiment [10] it was 20.2 µM (inactive); in [11], 33.3 µM (inactive); in [12], 26.5 µM (inactive). Also, the results for the GI50 in experiment [13], in experiment [14] and in experiment [15] were 37.9 µM (inactive), 18.5 µM (inactive) and 35.6 µM (inactive), respectively.
Regarding `COc1cccc2c1OC1c3ccccc3OCC1C2` (centres undefined), the GI50 in experiment [16] is > 100 µM (inactive); in experiment [2], above 100 µM; in [4], > 100 µM (inactive); in [5], > 100 µM (inactive); in experiment [17], > 100 µM (inactive); in experiment [6] it was > 100 µM (inactive). Further, the GI50 in experiment [7] is > 100 µM (inactive); in [18], > 100 µM (inactive); in experiment [10], > 100 µM (inactive); in [12], 35.7 µM (inactive); in experiment [13], > 100 µM (inactive); in [14], > 100 µM (inactive). Moreover, the GI50 in [15] is > 100 µM (inactive).
For the compound `CS(=O)(=O)c1nc(-c2cc3c(c(S(C)(=O)=O)n2)CCC3)cc2c1CCC2`, the GI50 is > 100 µM (inactive) in experiment [16]; > 100 µM (inactive) in experiment [1]; above 100 µM in [2]; > 100 µM (inactive) in [4]; > 100 µM (inactive) in experiment [5]; 24.4 µM (inactive) in experiment [6]. Further, the GI50 in [8] was > 100 µM (inactive); in experiment [9], > 100 µM (inactive); in [18], > 100 µM (inactive); in experiment [10], 74.5 µM (inactive); in experiment [19] it was 33.7 µM (inactive); in [11] it was > 100 µM (inactive). In addition, the GI50 in experiment [12] is > 100 µM (inactive); in [13], > 100 µM (inactive); in [14], 47.3 µM (inactive); in [15] it was > 100 µM (inactive).
In the case of `Cn1c(=O)cc(N2CCCC2)[nH]c1=O`, the GI50 in [16] was > 100 µM (inactive); in [1], > 100 µM (inactive); in experiment [2], above 100 µM; in experiment [4], > 100 µM (inactive); in experiment [5] it was > 100 µM (inactive); in experiment [17], > 100 µM (inactive). Further, the GI50 in experiment [6], in [7], in [8], in experiment [9], in experiment [18] and in [10] was > 100 µM (inactive) in each case. For the same compound, the GI50 in experiment [11], in experiment [12], in experiment [13] and in [14] was > 100 µM (inactive) in each case.
`O=C1CCN2C(=Nc3cccc4cccc2c34)N1`: the GI50 is > 100 µM (inactive) in experiment [16]; > 100 µM (inactive) in experiment [1]; above 100 µM in experiment [2]; > 100 µM (inactive) in [4]; > 100 µM (inactive) in experiment [8]; > 100 µM (inactive) in [9]. Further, the GI50 in experiment [18], in experiment [10], in experiment [19], in [11], in experiment [12] and in experiment [13] was > 100 µM (inactive) each time. Also, the GI50 in experiment [14] and in experiment [15] was > 100 µM (inactive) each time.
For the compound `NN/C(=N\c1ccc(Cl)cc1)NS(=O)(=O)c1ccc(S(=O)(=O)c2ccccc2)s1`, the GI50 was 20.1 µM (inactive) in experiment [16]; 16.8 µM (inactive) in experiment [1]; 22 µM in experiment [2]; 10.9 µM (inactive) in experiment [4]; 9.79 µM (inactive) in experiment [5]; 22.2 µM (inactive) in experiment [17]. The GI50 in experiment [6] was 33.3 µM (inactive); in experiment [8], 17.2 µM (inactive); in experiment [9], 21.1 µM (inactive); in experiment [18] it was 37.6 µM (inactive); in experiment [10], 30.3 µM (inactive); in experiment [19] it was 15.5 µM (inactive). The GI50 in experiment [11] was 46.7 µM (inactive); in experiment [12] it was 19.2 µM (inactive); in experiment [13], 38.6 µM (inactive); in experiment [14], 29 µM (inactive); in experiment [15], 7.21 µM (inactive).
For the compound `COC(=O)/C(=N\NC(=S)NN)C(C(=O)C(=O)Nc1ccccc1C(N)=O)c1nc2ccccc2nc1O` (centres undefined), the GI50 in [16] was > 100 µM (inactive); in experiment [1], > 100 µM (inactive); in [2], above 100 µM; in experiment [4], > 100 µM (inactive); in experiment [5], > 100 µM (inactive); in experiment [7] it was > 100 µM (inactive). The GI50 in experiment [9], in experiment [18], in experiment [10], in experiment [19], in [11] and in experiment [12] was > 100 µM (inactive) in each case. In addition, the GI50 in [13], in experiment [14] and in experiment [15] was > 100 µM (inactive) in each case.
In the case of `CCC(C)[C@H](NC(=O)N[C@H](C)c1ccccc1)C(=O)OC` (some centres undefined), the GI50 in experiment [16] is > 100 µM (inactive); in [1], > 100 µM (inactive); in [2], above 100 µM; in experiment [4], > 100 µM (inactive); in experiment [5] it was > 100 µM (inactive); in experiment [17], > 100 µM (inactive). The GI50 in experiment [6], in experiment [8], in experiment [9], in experiment [18], in [10] and in [11] was > 100 µM (inactive) each time. Moreover, the GI50 in experiment [12], in experiment [13], in experiment [14] and in [15] was > 100 µM (inactive) in each case.
In the case of `Cn1cc(S(=O)(=O)NC(=O)Nc2ccc(Cl)cc2)c(=O)c2ccc(F)cc21`, the GI50 is > 100 µM (inactive) in experiment [16]; > 100 µM (inactive) in [1]; above 100 µM in [2]; > 100 µM (inactive) in [3]; > 100 µM (inactive) in experiment [4]; 47.6 µM (inactive) in experiment [5]. The GI50 in experiment [6], in experiment [7], in [8], in experiment [9], in [18] and in experiment [10] was > 100 µM (inactive) in each case. The GI50 in experiment [19] was > 100 µM (inactive); in experiment [11], > 100 µM (inactive); in [12] it was > 100 µM (inactive); in experiment [13] it was > 100 µM (inactive); in experiment [14], > 100 µM (inactive); in [15] it was 3.01 µM (inactive).
In the case of `O=C1/C(=C/c2ccccc2S)N=C(c2ccccc2)N1c1ccc2c(c1)Sc1cc(N3C(=O)/C(=C/c4ccccc4S)N=C3c3ccccc3)ccc1N2`, the GI50 in experiment [16] was 17.4 µM (inactive); in [1], 18.6 µM (inactive); in experiment [2] it was 31.6 µM; in [3] it was 25.6 µM (inactive); in experiment [4], 22 µM (inactive); in experiment [5], 34 µM (inactive). The GI50 in experiment [17] is 21 µM (inactive); in [6] it was 28.4 µM (inactive); in experiment [8] it was 23.7 µM (inactive); in [9], 32.6 µM (inactive); in experiment [18], 18.7 µM (inactive); in experiment [10], 19.4 µM (inactive). The GI50 in experiment [11] was 21.7 µM (inactive); in [12], 17 µM (inactive); in experiment [13], 19.8 µM (inactive); in experiment [14], 19.7 µM (inactive); in experiment [15] it was 20.1 µM (inactive).
Take `O=C1/C(=C/c2cccs2)NC(=S)N1CN1CCOCC1`: the GI50 was > 100 µM (inactive) in experiment [16]; > 100 µM (inactive) in experiment [1]; above 100 µM in experiment [2]; > 100 µM (inactive) in [3]; > 100 µM (inactive) in experiment [4]; > 100 µM (inactive) in [5]. The GI50 in experiment [17], in experiment [6], in [18], in experiment [10], in experiment [11] and in experiment [12] was > 100 µM (inactive) each time. Further, the GI50 in [13], in experiment [14] and in [15] was > 100 µM (inactive) each time.
For `O=c1[nH]nc(Nc2ccc(Cl)cc2)c2nnn(-c3ccc([N+](=O)[O-])cc3)c12`, the GI50 in experiment [16] was 14.5 µM (inactive); in experiment [1] it was 43.3 µM (inactive); in [2], 14.4 µM; in [4], 6.35 µM (inactive); in experiment [5], 26.4 µM (inactive); in experiment [17], 16.6 µM (inactive). Also, the GI50 in experiment [6] was 42.4 µM (inactive); in [7], 26.1 µM (inactive); in experiment [8] it was 30.6 µM (inactive); in experiment [9], 23.8 µM (inactive); in experiment [18] it was > 100 µM (inactive); in experiment [10], 16.2 µM (inactive). Also, the GI50 in experiment [12] is 10.8 µM (inactive); in [13], 30.9 µM (inactive); in experiment [14], 14.2 µM (inactive).
As for `Cc1cc2c(c(/C=N/c3ccccc3O)c1)OC1(C=C2)Oc2ccccc2C(=O)N1C` (centres undefined), the GI50 in experiment [16] is 21.7 µM (inactive); in experiment [1], 14.2 µM (inactive); in [2], 15.9 µM; in experiment [3] it was 11.6 µM (inactive); in experiment [4], 12.3 µM (inactive); in experiment [5], 20.8 µM (inactive). In addition, the GI50 was 16.3 µM (inactive) in experiment [6]; 16.7 µM (inactive) in experiment [8]; 23.1 µM (inactive) in experiment [9]; 13.2 µM (inactive) in experiment [18]; 17.7 µM (inactive) in experiment [10]; 13 µM (inactive) in experiment [19]. Moreover, the GI50 in [11] is 18.3 µM (inactive); in experiment [12], 15.2 µM (inactive); in [13] it was 22.3 µM (inactive); in experiment [14], 18.2 µM (inactive); in experiment [15] it was 17.8 µM (inactive).
